Values quoted from earlier work, collected in US20090186081A1, “Disintegrating Loadable Tablets” (LifeCycle Pharma A/S, priority 2006, published 2009).
Counter-ions that a name gives are not always drawn. Like-named read-outs stand apart in the source and are kept apart here.

Columns and labels:
[1] = not given; remark: listed apart in the source
[2] = Table 1, Poorly-Soluble Drug Candidates
[3] = Table 2, Poorly-Soluble Drugs with Low Bioavailability

Compound | Solubility In Water [2] | Solubility In Water [3] | further results
O=[N+]([O-])O[C@H]1CO[C@H]2[C@@H]1OC[C@H]2O[N+](=O)[O-] [Isosorbide dinitrate] | Sparingly | Sparingly soluble | 
OC(Cn1cncn1)(Cn1cncn1)c1ccc(F)cc1F [Fluconazole] | Slightly |  | 
CC(C)(C)NC(=O)[C@H]1CC[C@H]2[C@@H]3CC[C@H]4NC(=O)C=C[C@]4(C)[C@H]3CC[C@]12C [Finasteride] | Insoluble |  | 
CCCCCc1cc(O)c2c(c1)OC(C)(C)[C@@H]1CCC(C)=C[C@@H]21 [Dronabinol] |  | Insoluble | Bioavailability ([1]; in vivo): Low 10-20%)
CC(=O)O[C@H]1C(=O)[C@@]2(C)[C@H]([C@H](OC(=O)c3ccccc3)[C@]3(O)C[C@H](OC(=O)[C@H](O)[C@@H](NC(=O)c4ccccc4)c4ccccc4)C(C)=C1C3(C)C)[C@]1(OC(C)=O)CO[C@@H]1C[C@@H]2O [Paclitaxel] | Insoluble |  | 
COc1ccc2[nH]c([S+]([O-])Cc3ncc(C)c(OC)c3C)nc2c1 (stereo not shown) [Omeprazole] | Slightly |  | 
C[C@@](Cc1ccc(O)c(O)c1)(NN)C(=O)O [Carbidopa] | Slightly |  | 
CC(C)Cc1ccc(C(C)C(=O)O)cc1 (stereo not shown) [Ibuprofen] | Insoluble |  | 
CC(=O)OC[C@H]1O[C@@H]([S-])[C@H](OC(C)=O)[C@@H](OC(C)=O)[C@@H]1OC(C)=O.CCP(CC)CC.[Au+] [Auranofin] |  | Slightly soluble | Bioavailability ([1]; in vivo): Low (15-25%)
Cc1nnc2n1-c1ccc(Cl)cc1C(c1ccccc1)=NC2 [Alprazolam] | Insoluble |  | 
CCOC(=O)[C@H](CCc1ccccc1)N[C@@H](C)C(=O)N1Cc2ccccc2C[C@H]1C(=O)O [Quinapril] | Insoluble |  | 
C[C@@H]1C[C@H]2[C@@H]3CCC4=CC(=O)C=C[C@]4(C)[C@@]3(Cl)[C@@H](O)C[C@]2(C)[C@@]1(O)C(=O)CCl [Mometasone] | Insoluble |  | 
OCCN1CCN(CCCN2c3ccccc3Sc3ccc(Cl)cc32)CC1 [Perphenazine] |  |  | Bioavailability ([1]; in words): Low
OC(CCN1CCCCC1)(c1ccccc1)C1CC2C=CC1C2 (stereo not shown) [Biperiden] |  | Sparingly soluble | 
CN1CCC[C@@H]1CCO[C@](C)(c1ccccc1)c1ccc(Cl)cc1 [Clemastine fumarate] |  | Slightly soluble | 
COCCCC/C(=N\OCCN)c1ccc(C(F)(F)F)cc1 [Fluvoxamine] | Sparingly |  | 
C#C[C@]1(O)CC[C@H]2[C@@H]3CCC4=Cc5oncc5C[C@]4(C)[C@H]3CC[C@@]21C [Danazol] |  |  | Bioavailability ([1]; in words): Low
Cc1ccc(-c2nc3ccc(C)cn3c2CC(=O)N(C)C)cc1 [Zolpidem] | Sparingly |  | 
CCOC(=O)C1=C(C)NC(C)=C(C(=O)OC)C1c1cccc(Cl)c1Cl (stereo not shown) [Felodipine] | Insoluble | Insoluble | 
CC1=C(/C=C/C(C)=C/C=C/C(C)=C\C(=O)O)C(C)(C)CCC1 [Isotretinoin] | Insoluble |  | 
OCCN(CCO)c1nc(N2CCCCC2)c2nc(N(CCO)CCO)nc(N3CCCCC3)c2n1 [Dipyridamole] | Slightly |  | 
CN1C(C(=O)Nc2ccccn2)=C(O)c2ccccc2S1(=O)=O [Piroxicam] | Sparingly |  | 
NC(N)=Nc1nc(CSCCC(N)=NS(N)(=O)=O)cs1 [Famotidine] | Slightly | Slightly soluble | 
CO[C@]12C[C@@H](COC(=O)c3cncc(Br)c3)CN(C)[C@@H]1Cc1cn(C)c3cccc2c13 [Nicergoline] | Insoluble |  | 
NC(=O)N1c2ccccc2C=Cc2ccccc21 [Carbamazepine] | Insoluble |  | 

Compound | Solubility In Water [2] | Solubility In Water [3] | further results
COc1cc2nc(N3CCN(C(=O)C4COc5ccccc5O4)CC3)nc(N)c2cc1OC (stereo not shown) [Doxazosin] | Slightly |  | 
O=C1NC(=O)C(c2ccccc2)(c2ccccc2)N1 [Phenytoin] | Insoluble |  | 
COc1ccc(CCN2CCC(Nc3nc4ccccc4n3Cc3ccc(F)cc3)CC2)cc1 [Astemizole] | Insoluble | Insoluble | Bioavailability ([1]; in words): Low-moderate
CCc1cccc2c3c([nH]c12)C(CC)(CC(=O)O)OCC3 (stereo not shown) [Etodolac] | Insoluble |  | 
CC(=O)S[C@@H]1CC2=CC(=O)CC[C@]2(C)[C@H]2CC[C@@]3(C)[C@@H](CC[C@@]34CCC(=O)O4)[C@H]12 [Spironolactone] |  | Insoluble | 
Cc1cccc(Nc2ccccc2C(=O)O)c1C [Mefenamic acid] | Slightly |  | 
CC(C)(C)c1ccc(C(O)CCCN2CCC(C(O)(c3ccccc3)c3ccccc3)CC2)cc1 (stereo not shown) [Terfenadine] | Slightly |  | 
CN[C@H]1CC[C@@H](c2ccc(Cl)c(Cl)c2)c2ccccc21 [Sertraline] | Slightly | Slightly soluble | 
CC(C(=O)O)c1ccc(-c2ccccc2)c(F)c1 (stereo not shown) [Flurbiprofen] | Slightly |  | 
CCOC(=O)[C@H](CCc1ccccc1)N[C@@H](C)C(=O)N1CCC[C@H]1C(=O)O [Enalapril] | Sparingly |  | 
Cc1c(OCC(F)(F)F)ccnc1C[S+]([O-])c1nc2ccccc2[nH]1 (stereo not shown) [Lansoprazole] | Insoluble |  | 
CC(CCc1ccc(O)cc1)NCCc1ccc(O)c(O)c1 (stereo not shown) [Dobutamine] | Sparingly |  | 
COc1ccc2cc(CCC(C)=O)ccc2c1 [Nabumetone] | Insoluble | Insoluble | 
C=CCC1(CC(C)C)C(=O)NC(=O)NC1=O [Butalbital] | Insoluble |  | 
OCCN1CCN(CCCN2c3ccccc3Sc3ccc(C(F)(F)F)cc32)CC1 [Fluphenazine] |  | Insoluble | 
COc1cc([C@@H]2c3cc4c(cc3[C@@H](O[C@@H]3O[C@@H]5CO[C@@H](C)O[C@H]5[C@H](O)[C@H]3O)[C@H]3COC(=O)[C@H]23)OCO4)cc(OC)c1O [Etoposide] | Very Slightly |  | 
CN1CCN(C2=Nc3cc(Cl)ccc3Nc3ccccc32)CC1 [Clozapine] | Slightly |  | 
CC[C@H](C)C(=O)O[C@H]1C[C@@H](C)C=C2C=C[C@H](C)[C@H](CC[C@@H]3C[C@@H](O)CC(=O)O3)[C@H]21 [Lovastatin] | Insoluble | Insoluble | 
CN1CCCC(n2nc(Cc3ccc(Cl)cc3)c3ccccc3c2=O)CC1 (stereo not shown) [Azelastine] | Insoluble |  | 
CC1CC(OC(=O)C(O)c2ccccc2)CC(C)(C)C1 (stereo not shown) [Cyclandelate] |  | Insoluble | Bioavailability ([1]; in words): Low
CC(=O)N1CCN(c2ccc(OCC3COC(Cn4ccnc4)(c4ccc(Cl)cc4Cl)O3)cc2)CC1 (stereo not shown) [Ketoconazole] | Insoluble |  | 
CO/N=C(\C(=O)N[C@@H]1C(=O)N2C(C(=O)O)=C(COC(C)=O)CS[C@H]12)c1csc(N)n1 [Cefotaxime] | Sparingly |  | 
CCOC(=O)[C@H](CCc1ccccc1)N[C@@H](C)C(=O)N1[C@H](C(=O)O)C[C@@H]2CCC[C@@H]21 [Ramipril] | Insoluble |  | 
COC(=O)C1=C(C)NC(C)=C(C(=O)OC(C)C)C1c1cccc2nonc12 (stereo not shown) [Isradipine] | Insoluble | Insoluble | 
C[C@]12CC[C@H]3[C@@H](CCC4=CC(=O)CC[C@@]43C)[C@@H]1CC[C@@H]2O [Testosterone] |  | Insoluble | Bioavailability ([1]; in words): Low
